According to patent US20230271950A1, “ANTIBACTERIAL PICOLINAMIDE COMPOUNDS” (University of Notre Dame Du Lac, priority 2020, published 2023):
In brackets after ≈: the same amount, converted by molar mass. Where two headings read alike, the source gives them in different places. Each block holds one compound with its values, some of them ahead of it.

Key:
C. difficile = test: MIC by broth microdilution against C. difficile strains; format: cell-based, Clostridioides difficile; details: for MIC: Clostridioides difficile
MRSA (NRS70, NRS119) = test: MIC against MRSA strains; format: cell-based, Staphylococcus aureus; details: Staphylococcus aureus
S. aureus ATCC29213 = test: MIC against MSSA; format: cell-based, Staphylococcus aureus; details: Staphylococcus aureus; MSSA ATCC 29213; Table 10, unit inferred; read-out: Activity (MIC) against S. aureus
E. faecium NCTC7171 = test: MIC against E. faecium; format: cell-based, Enterococcus faecium; details: Enterococcus faecium, NCTC7171; E. faecium NCTC 7171; Table 10, unit inferred; read-out: Activity (MIC) against E. faecium
Bacteroides fragilis = test: MIC against gut bacterium Bacteroides fragilis; format: cell-based; details: Bacteroides fragilis, Bacteroides fragilis strain HM-709; Table 7; read-out: MIC
Bifidobacterium longum = test: MIC against gut bacterium Bifidobacterium longum; format: cell-based; details: Bifidobacterium longum, Bifidobacterium longum strain HM-846; Table 7; read-out: MIC
Corynebacterium spp. = test: MIC against gut bacterium Corynebacterium spp.; format: cell-based; details: Corynebacterium, Corynebacterium spp. strain HM-784; Table 7
Fusobacterium nucleatum = test: MIC against gut bacterium Fusobacterium nucleatum; format: cell-based; details: Fusobacterium nucleatum, Fusobacterium nucleatum strain HM-992; Table 7; read-out: MIC
Lactobacillus reuteri = test: MIC against gut bacterium Lactobacillus reuteri; format: cell-based; details: Limosilactobacillus reuteri; Lactobacillus reuteri strain HM-102; Table 7; read-out: MIC
Lactobacillus gasseri = test: MIC against gut bacterium Lactobacillus gasseri; format: cell-based; details: Lactobacillus gasseri strain HM-644; Table 7; read-out: MIC
Veillonella sp. HM-49 = test: MIC against gut bacterium Veillonella sp.; format: cell-based; details: SP.HM49; Veillonella sp. strain HM-49; Table 7; read-out: MIC
Eubacterium sp. = test: MIC against gut bacterium Eubacterium sp.; format: cell-based; details: Eubacterium, Eubacterium sp. strain HM-178; Table 7; read-out: MIC
HeLa cells = test: XTT cytotoxicity assay with HeLa cells; format: cell-based; details: Homo sapiens, Table 6
Protocol: XTT assay. Cytotoxicity assays were performed in triplicate against HeLa cells (ATCC CCL-2). The IC50 values were calculated by nonlinear regression with GraphPad Prism 5 (San Diego, Calif.).
XTT assay. XTT assays were performed with HeLa cells (ATCC CCL-2) in triplicate, as previously described (Lancet 2008, 371, 1486). IC50 values were determined by nonlinear regression using GraphPad Prism 5 (San Diego, Calif.).

[1] = ATCC43255, C. difficile ATCC43255, Table 7, read-out: MIC
[2] = ATCC43598, C. difficile ATCC43598, Table 7, read-out: MIC
[3] = BAA1801, C. difficile BAA-1801, Table 7, read-out: MIC
[4] = BAA1803, C. difficile BAA-1803, Table 7, read-out: MIC
[5] = BAA1804, C. difficile BAA-1804, Table 7, read-out: MIC
[6] = BAA1812, C. difficile BAA-1812, Table 7, read-out: MIC
[7] = BAA1814, C. difficile BAA-1814, Table 7, read-out: MIC
[8] = BAA1870, C. difficile BAA-1870, Table 7, read-out: MIC
[9] = C. difficile 23691 (VR, vancomycin-resistant), Table 7, read-out: MIC
[10] = C. difficile 23828 (FR, fidaxomicin-resistant), Table 7, read-out: MIC
[11] = C. difficile 24531 (VR, vancomycin-resistant), Table 7, read-out: MIC
[12] = C. difficile 24923 (VR, vancomycin-resistant), Table 7, read-out: MIC
[13] = C. difficile 26675 (MR, metronidazole-resistant), Table 7, read-out: MIC
[14] = C. difficile 27081 (FR, fidaxomicin-resistant), Table 7, read-out: MIC
[15] = C. difficile 27173 (MR, metronidazole-resistant), Table 7, read-out: MIC
[16] = C. difficile NR49292, Table 7, read-out: MIC
[17] = C. difficile NR49294, Table 7, read-out: MIC
[18] = C. difficile NR49302, Table 7, read-out: MIC
[19] = C. difficile NR49305, Table 7, read-out: MIC
[20] = C. difficile NR49310, Table 7, read-out: MIC
[21] = C. difficile NR49318, Table 7, read-out: MIC
[22] = C. difficile, Table 8, read-out: MIC
[23] = MIC MRSA NRS70/MIC C. difficile ATCC43255, Table 7
[24] = MRSA NRS70, Table 7, read-out: MIC

MIC (C. difficile; ATCC43255, ATCC 43255, ribotype 087, Table 3 (SAR^2 and SAR^3), read-out: MIC C. difficile): 0.125 µg/mL (≈ 0.374 µM)
MIC (C. difficile; [1]): 0.125 µg/mL (≈ 0.374 µM)
MIC (C. difficile; ATCC43255, C. difficile ATCC 43255, read-out: MIC against C. difficile): 0.125 µg/mL (≈ 0.374 µM)
MIC (C. difficile; [2]): 0.25 µg/mL (≈ 0.748 µM)
MIC (C. difficile; [3]): 0.25 µg/mL (≈ 0.748 µM)
MIC (C. difficile; [4]): 0.25 µg/mL (≈ 0.748 µM)
MIC (C. difficile; [5]): 0.125 µg/mL (≈ 0.374 µM)
MIC (C. difficile; [6]): 0.25 µg/mL (≈ 0.748 µM)
MIC (C. difficile; [7]): 0.125 µg/mL (≈ 0.374 µM)
MIC (C. difficile; [8]): 0.25 µg/mL (≈ 0.748 µM)
MIC (C. difficile; [9]): 0.5 µg/mL (≈ 1.5 µM)
MIC (C. difficile; [10]): 0.25 µg/mL (≈ 0.748 µM)
MIC (C. difficile; [11]): 0.25 µg/mL (≈ 0.748 µM)
MIC (C. difficile; [12]): 0.5 µg/mL (≈ 1.5 µM)
MIC (C. difficile; [13]): 0.5 µg/mL (≈ 1.5 µM)
MIC (C. difficile; [14]): 0.5 µg/mL (≈ 1.5 µM)
MIC (C. difficile; [15]): 0.5 µg/mL (≈ 1.5 µM)
MIC (C. difficile; [16]): 0.25 µg/mL (≈ 0.748 µM)
MIC (C. difficile; [17]): 0.25 µg/mL (≈ 0.748 µM)
MIC (C. difficile; [18]): 0.25 µg/mL (≈ 0.748 µM)
MIC (C. difficile; [19]): 0.25 µg/mL (≈ 0.748 µM)
MIC (C. difficile; [20]): 0.125 µg/mL (≈ 0.374 µM)
MIC (C. difficile; [21]): 0.25 µg/mL (≈ 0.748 µM)
MIC (C. difficile; [22]): 0.125 µg/mL (≈ 0.374 µM)
MIC (MRSA (NRS70, NRS119); [24]): 128 µg/mL (≈ 383 µM)
MIC (MRSA (NRS70, NRS119); MRSA strain NRS70, read-out: MIC against MRSA): 128 µg/mL (≈ 383 µM)
MIC (MRSA (NRS70, NRS119); NRS70 strain, Table 3 (SAR^2 and SAR^3), read-out: MIC MRSA): 128 µg/mL (≈ 383 µM)
MIC (S. aureus ATCC29213): ≥ 128 µg/mL
MIC (E. faecium NCTC7171): ≥ 128 µg/mL
MIC (Bacteroides fragilis): 4 µg/mL (≈ 12 µM)
MIC (Bifidobacterium longum): > 16 µg/mL
MIC (Corynebacterium spp.): 16 µg/mL (≈ 47.9 µM)
MIC (Fusobacterium nucleatum): 8 µg/mL (≈ 23.9 µM)
MIC (Lactobacillus reuteri): 4 µg/mL (≈ 12 µM)
MIC (Lactobacillus gasseri): > 16 µg/mL
MIC (Veillonella sp. HM-49): 16 µg/mL (≈ 47.9 µM)
MIC (Eubacterium sp.): 8 µg/mL (≈ 23.9 µM)
SMILES: O=C(Nc1ncco1)c1cc(-c2ccc(Cl)c(Cl)c2)ccn1 [Compound 87, 4-(3,4-Dichlorophenyl)-N-(oxazol-2-yl)picolinamide]
Selectivity (C. difficile; [23]): 1024
Selectivity (C. difficile; MIC MRSA/MIC C. difficile, Table 3): 1024
Selectivity (C. difficile; Table 8): 1024
IC50 (HeLa cells): 95.2 ± 1 µg/mL (≈ 285 µM)

SMILES: O=C(Nc1ncco1)c1cc(Oc2cccc(OC(F)(F)F)c2)ccn1 [Compound 108, N-(Oxazol-2-yl)-4-(3-(trifluoromethoxy)phenoxy)picolinamide]
MIC (C. difficile; [1]): 1 µg/mL (≈ 2.74 µM)
MIC (C. difficile; [2]): 0.5 µg/mL (≈ 1.37 µM)
MIC (C. difficile; [3]): 0.25 µg/mL (≈ 0.684 µM)
MIC (C. difficile; [4]): 0.5 µg/mL (≈ 1.37 µM)
MIC (C. difficile; [5]): 0.25 µg/mL (≈ 0.684 µM)
MIC (C. difficile; [6]): 1 µg/mL (≈ 2.74 µM)
MIC (C. difficile; [7]): 0.25 µg/mL (≈ 0.684 µM)
MIC (C. difficile; [8]): 0.5 µg/mL (≈ 1.37 µM)
MIC (C. difficile; [9]): 0.25 µg/mL (≈ 0.684 µM)
MIC (C. difficile; [10]): 1 µg/mL (≈ 2.74 µM)
MIC (C. difficile; [11]): 0.25 µg/mL (≈ 0.684 µM)
MIC (C. difficile; [12]): 0.25 µg/mL (≈ 0.684 µM)
MIC (C. difficile; [13]): 1 µg/mL (≈ 2.74 µM)
MIC (C. difficile; [14]): 0.25 µg/mL (≈ 0.684 µM)
MIC (C. difficile; [15]): 0.5 µg/mL (≈ 1.37 µM)
MIC (C. difficile; [16]): 0.25 µg/mL (≈ 0.684 µM)
MIC (C. difficile; [17]): 0.25 µg/mL (≈ 0.684 µM)
MIC (C. difficile; [18]): 1 µg/mL (≈ 2.74 µM)
MIC (C. difficile; [19]): 0.25 µg/mL (≈ 0.684 µM)
MIC (C. difficile; [20]): 0.5 µg/mL (≈ 1.37 µM)
MIC (C. difficile; [21]): 0.5 µg/mL (≈ 1.37 µM)
MIC (C. difficile; [22]): 1 µg/mL (≈ 2.74 µM)
Selectivity (C. difficile; [23]): 64
Selectivity (C. difficile; Table 8): 64
MIC (MRSA (NRS70, NRS119); [24]): 64 µg/mL (≈ 175 µM)
MIC (S. aureus ATCC29213): 64 µg/mL (≈ 175 µM)
MIC (E. faecium NCTC7171): 64 µg/mL (≈ 175 µM)
MIC (Bacteroides fragilis): 8 µg/mL (≈ 21.9 µM)
MIC (Bifidobacterium longum): 16 µg/mL (≈ 43.8 µM)
MIC (Corynebacterium spp.): > 16 µg/mL
MIC (Fusobacterium nucleatum): 8 µg/mL (≈ 21.9 µM)
MIC (Lactobacillus reuteri): 4 µg/mL (≈ 11 µM)
MIC (Lactobacillus gasseri): > 16 µg/mL
MIC (Veillonella sp. HM-49): 16 µg/mL (≈ 43.8 µM)
MIC (Eubacterium sp.): 8 µg/mL (≈ 21.9 µM)
IC50 (HeLa cells): 93.3 ± 1.7 µg/mL (≈ 255 µM)
